In ChEMBL document CHEMBL4184166 (Bioorg Med Chem Lett, 2017):

Experiments:
Cytochrome P450 3A4 [1] = target: T1, Cytochrome P450 3A4 (Homo sapiens, UniProt P08684); assay: Inhibition of human CYP3A4 expressed in HEK293 cells by fluorescence assay; format: ADME, cell-based
Cytochrome P450 3A4 [2] = target: T1, Cytochrome P450 3A4; assay: Inhibition of recombinant human CYP3A4 expressed in yeast microsomal membranes by fluorescence assay; format: ADME, cell membranes, Microsomal Membrane
Cytochrome P450 2D6 [3] = target: T2, Cytochrome P450 2D6 (Homo sapiens, UniProt P10635); assay: Inhibition of human CYP2D6 expressed in HEK293 cells by fluorescence assay; format: ADME, cell-based
T2 sequence (P10635 whole entry): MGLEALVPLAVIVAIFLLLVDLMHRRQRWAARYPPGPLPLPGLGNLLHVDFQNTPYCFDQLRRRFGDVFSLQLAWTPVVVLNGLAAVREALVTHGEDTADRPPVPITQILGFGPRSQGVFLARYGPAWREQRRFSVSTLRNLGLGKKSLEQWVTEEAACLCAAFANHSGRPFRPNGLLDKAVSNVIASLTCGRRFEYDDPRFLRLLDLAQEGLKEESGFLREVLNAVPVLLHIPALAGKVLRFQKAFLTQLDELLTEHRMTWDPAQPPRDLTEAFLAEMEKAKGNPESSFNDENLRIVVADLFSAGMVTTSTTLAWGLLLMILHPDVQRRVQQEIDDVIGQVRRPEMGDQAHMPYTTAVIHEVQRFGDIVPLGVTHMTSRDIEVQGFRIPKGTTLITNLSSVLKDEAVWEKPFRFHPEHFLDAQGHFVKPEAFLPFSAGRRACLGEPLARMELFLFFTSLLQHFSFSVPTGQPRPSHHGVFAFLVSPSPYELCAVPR

CYP1B1 = target: T3, CYP1B1 (Homo sapiens, UniProt Q16678); assay: Inhibition of human CYP1B1 expressed in yeast microsomal membranes at 10 uM using 7-ethoxyresorufin as substrate by fluorescence assay relative to control; format: cell membranes; details: probe 7-ethoxyresorufin
T3 sequence (Q16678 whole entry): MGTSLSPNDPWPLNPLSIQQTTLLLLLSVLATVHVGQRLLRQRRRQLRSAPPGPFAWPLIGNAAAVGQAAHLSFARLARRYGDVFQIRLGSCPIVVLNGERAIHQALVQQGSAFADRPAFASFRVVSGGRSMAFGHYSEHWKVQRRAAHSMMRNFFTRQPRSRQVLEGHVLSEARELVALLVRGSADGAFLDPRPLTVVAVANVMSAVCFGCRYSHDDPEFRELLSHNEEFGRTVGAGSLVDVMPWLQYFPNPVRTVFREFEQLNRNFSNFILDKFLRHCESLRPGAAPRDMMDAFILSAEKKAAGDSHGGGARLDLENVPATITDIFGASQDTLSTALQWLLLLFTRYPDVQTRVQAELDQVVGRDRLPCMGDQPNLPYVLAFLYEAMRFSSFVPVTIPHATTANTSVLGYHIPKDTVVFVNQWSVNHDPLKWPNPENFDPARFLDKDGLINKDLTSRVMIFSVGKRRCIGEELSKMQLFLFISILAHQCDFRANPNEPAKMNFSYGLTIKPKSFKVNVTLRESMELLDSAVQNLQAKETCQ

Cytochrome P450 1B1 [4] = target: T4, Cytochrome P450 1B1 (Homo sapiens, UniProt Q16678); assay: Inhibition of human CYP1B1 expressed in HEK293 cells by fluorescence assay; format: cell-based
T4 sequence (Q16678 whole entry): T3 sequence (Q16678 whole entry)

Cytochrome P450 1A1 [5] = target: T5, Cytochrome P450 1A1 (Homo sapiens, UniProt P04798); assay: Inhibition of human CYP1A expressed in HEK293 cells by fluorescence assay; format: ADME, cell-based
T5 sequence (P04798 whole entry): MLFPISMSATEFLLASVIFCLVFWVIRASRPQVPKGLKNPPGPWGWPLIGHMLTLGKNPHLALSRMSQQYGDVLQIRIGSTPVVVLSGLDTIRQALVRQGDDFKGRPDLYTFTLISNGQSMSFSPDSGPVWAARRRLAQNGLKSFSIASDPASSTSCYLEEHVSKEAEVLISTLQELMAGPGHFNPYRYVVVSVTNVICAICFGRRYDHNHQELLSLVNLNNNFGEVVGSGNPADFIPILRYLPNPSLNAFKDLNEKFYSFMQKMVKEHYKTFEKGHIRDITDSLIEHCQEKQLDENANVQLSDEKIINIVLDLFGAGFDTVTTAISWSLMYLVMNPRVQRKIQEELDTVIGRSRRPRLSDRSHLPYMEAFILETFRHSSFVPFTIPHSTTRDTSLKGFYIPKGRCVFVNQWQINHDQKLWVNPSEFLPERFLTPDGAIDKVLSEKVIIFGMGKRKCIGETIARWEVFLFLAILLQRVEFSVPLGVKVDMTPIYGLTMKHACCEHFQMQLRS

Cytochrome P450 1B1 [6] = target: T4, Cytochrome P450 1B1; assay: Inhibition of human CYP1B1 expressed in yeast microsomal membranes using 7-ethoxyresorufin as substrate by fluorescence assay; format: cell membranes
Cytochrome P450 1A2 [7] = target: T6, Cytochrome P450 1A2 (Homo sapiens, UniProt P05177); assay: Inhibition of recombinant human CYP1A2 expressed in yeast microsomal membranes by fluorescence assay; format: ADME, cell membranes, Microsomal Membrane
T6 sequence (P05177 whole entry): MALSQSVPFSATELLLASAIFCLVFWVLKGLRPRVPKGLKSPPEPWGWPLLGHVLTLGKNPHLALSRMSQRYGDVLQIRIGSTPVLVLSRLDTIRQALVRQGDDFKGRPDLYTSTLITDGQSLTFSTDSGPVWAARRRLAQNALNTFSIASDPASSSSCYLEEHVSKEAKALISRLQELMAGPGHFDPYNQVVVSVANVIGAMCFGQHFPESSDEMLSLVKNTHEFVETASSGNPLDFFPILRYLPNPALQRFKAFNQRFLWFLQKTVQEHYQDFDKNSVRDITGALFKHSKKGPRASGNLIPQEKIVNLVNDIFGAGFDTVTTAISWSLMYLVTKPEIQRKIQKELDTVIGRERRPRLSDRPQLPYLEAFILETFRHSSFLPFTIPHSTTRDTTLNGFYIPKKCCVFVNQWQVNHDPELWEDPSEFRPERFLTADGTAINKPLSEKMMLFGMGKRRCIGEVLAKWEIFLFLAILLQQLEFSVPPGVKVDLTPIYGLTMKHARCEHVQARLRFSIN

Cytochrome P450 2D6 [8] = target: T2, Cytochrome P450 2D6; assay: Inhibition of recombinant human CYP2D6 expressed in yeast microsomal membranes by fluorescence assay; format: ADME, cell membranes, Microsomal Membrane
Cytochrome P450 1A2 [9] = target: T6, Cytochrome P450 1A2; assay: Inhibition of human CYP1A2 expressed in HEK293 cells by fluorescence assay; format: ADME, cell-based
CYP1A1 = target: T7, CYP1A1 (Homo sapiens, UniProt P04798); assay: Inhibition of recombinant human CYP1A1 expressed in yeast microsomal membranes at 10 uM by fluorescence assay relative to control; format: cell membranes
T7 sequence (P04798 whole entry): T5 sequence (P04798 whole entry)

Cytochrome P450 1A1 [10] = target: T5, Cytochrome P450 1A1; assay: Inhibition of recombinant human CYP1A1 expressed in yeast microsomal membranes by fluorescence assay; format: cell membranes

T1 sequence (P08684 whole entry): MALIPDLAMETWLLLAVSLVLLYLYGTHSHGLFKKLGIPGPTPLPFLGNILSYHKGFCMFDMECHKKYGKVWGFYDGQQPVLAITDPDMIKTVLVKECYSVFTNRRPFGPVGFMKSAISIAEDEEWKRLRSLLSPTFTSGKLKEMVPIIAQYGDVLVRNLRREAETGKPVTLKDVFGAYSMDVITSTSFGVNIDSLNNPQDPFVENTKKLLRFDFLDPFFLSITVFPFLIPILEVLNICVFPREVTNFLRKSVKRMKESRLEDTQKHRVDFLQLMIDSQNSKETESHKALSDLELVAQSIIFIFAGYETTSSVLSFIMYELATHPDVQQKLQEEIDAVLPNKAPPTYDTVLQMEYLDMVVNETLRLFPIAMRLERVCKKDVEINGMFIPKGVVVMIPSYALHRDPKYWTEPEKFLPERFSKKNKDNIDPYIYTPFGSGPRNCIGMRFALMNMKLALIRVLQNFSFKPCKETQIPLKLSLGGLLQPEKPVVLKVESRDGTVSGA

Row | inhibition at 10 µM (CYP1B1) [%] | inhibition at 10 µM (CYP1A1) [%] | Structure (SMILES) | further results
1 | -2.1 | 11.4 | CC1(C)[C@@H](O)CC[C@]2(C)[C@H]3C(=O)C=C4[C@@H]5C[C@@](C)(C(=O)O)CC[C@]5(C)CC[C@@]4(C)[C@]3(C)CC[C@@H]12 [ENOXOLONE] | 
2 | -1.3 | 10.8 | COc1ccc(-c2coc3cc(O)ccc3c2=O)cc1 [FORMONONETIN] | 
3 | 26.6 | 36.8 | CC1(C)C=Cc2c(ccc3c2OC[C@@H](c2ccc(O)cc2O)C3)O1 [GLABRIDIN] | 
4 | 10.5 | 39 | CC1(C)[C@@H](O[C@H]2O[C@H](C(=O)O)[C@@H](O)[C@H](O)[C@H]2O[C@@H]2O[C@H](C(=O)O)[C@@H](O)[C@H](O)[C@H]2O)CC[C@]2(C)[C@H]3C(=O)C=C4[C@@H]5C[C@@](C)(C(=O)O)CC[C@]5(C)CC[C@@]4(C)[C@]3(C)CC[C@@H]12 [GLYCYRRHIZIN] | 
5 | 3.1 | 22.3 | O=C(/C=C/c1ccc(O)cc1)c1ccc(O)cc1O [ISOLIQUIRITIGENIN] | 
6 | 38.2 | 19.2 | O=C1C[C@@H](c2ccc(O)cc2)Oc2cc(O)ccc21 [LIQUIRTIGENIN] | 

The next lines start with the compound.

Row | Structure (SMILES) | inhibition at 10 µM (CYP1B1) [%] | inhibition at 10 µM (CYP1A1) [%] | further results
7 | CC(C)=CCc1cc(C2CC(=O)c3ccc(O)c(CC=C(C)C)c3O2)ccc1O (configuration not stated) | 17.7 | 67.2 | IC50 (Cytochrome P450 3A4 [1]): > 20 µM; IC50 (Cytochrome P450 3A4 [2]): > 20 µM; IC50 (Cytochrome P450 2D6 [3]): > 20 µM; IC50 (Cytochrome P450 1B1 [4]): 15 µM; IC50 (Cytochrome P450 1A1 [5]): > 20 µM; IC50 (Cytochrome P450 1B1 [6]): > 20 µM; IC50 (Cytochrome P450 1A2 [7]): > 20 µM; IC50 (Cytochrome P450 2D6 [8]): > 20 µM; IC50 (Cytochrome P450 1A2 [9]): > 20 µM; IC50 (Cytochrome P450 1A1 [10]): 17.6 µM
8 | CC(C)=CCc1cc(C2Oc3c(ccc(O)c3CC=C(C)C)C(=O)C2O)ccc1O (configuration not stated) | 7.5 | 31.4 | 
9 | COc1ccc(C2COc3c(ccc4c3C=CC(C)(C)O4)C2)c(O)c1 (configuration not stated) | 12 | 29.6 | 
10 | O=C(/C=C/c1ccc(O[C@H]2O[C@@H](CO)[C@H](O)[C@@H](O)[C@@H]2O[C@@H]2OC[C@](O)(CO)[C@H]2O)cc1)c1ccc(O)cc1O | -9.5 | 11.4 | 
11 | COc1ccc2c(c1)OC1c3ccc(O)cc3OCC21 (configuration not stated) | 31.7 | 27.5 | 
12 | O=c1cc(-c2ccccc2)oc2c1ccc1ccccc12 [ALPHA-NAPHTHOFLAVONE] |  | 97 | 
13 | O=c1c(O)c(-c2ccc(O)c(O)c2)oc2cc(O)cc(O)c12 [QUERCETIN] | 67.2 | 31.5 | IC50 (Cytochrome P450 2D6 [3]): > 20 µM; IC50 (Cytochrome P450 2D6 [8]): > 20 µM
